According to US8912176B2 (Evotec AG, priority 2009, dated 2014):

Biological target: human H3 receptor (Homo sapiens, UniProt Q9Y5N1)
Test: cAMP quantification assay for human H3 receptor (DiscoveRx cAMP XS+)

human H3 receptor, sequence (Q9Y5N1 whole entry): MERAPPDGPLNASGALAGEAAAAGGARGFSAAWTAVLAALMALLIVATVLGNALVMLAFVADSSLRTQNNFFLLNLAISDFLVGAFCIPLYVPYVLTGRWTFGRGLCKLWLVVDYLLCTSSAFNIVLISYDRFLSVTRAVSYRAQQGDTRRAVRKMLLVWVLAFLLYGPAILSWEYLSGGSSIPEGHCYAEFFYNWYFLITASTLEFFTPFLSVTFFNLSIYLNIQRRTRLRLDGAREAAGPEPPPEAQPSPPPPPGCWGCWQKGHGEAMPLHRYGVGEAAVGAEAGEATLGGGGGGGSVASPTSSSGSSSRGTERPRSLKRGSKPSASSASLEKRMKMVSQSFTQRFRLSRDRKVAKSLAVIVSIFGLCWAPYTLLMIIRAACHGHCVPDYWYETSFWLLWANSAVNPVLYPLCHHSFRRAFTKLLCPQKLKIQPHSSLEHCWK

IC50 [nM] | SMILES
< 50 | O=C(CN1CCC(F)(F)C1)N1CC(C(=O)N2CCCN(C3CCC3)CC2)C1 [Example 19, 1-cyclobutyl-4-({1-[(3,3-difluoropyrrolidin-1-yl)acetyl]azetidin-3-yl}carbonyl)-1,4-diazepane]
< 50 | O=C(C1CN(S(=O)(=O)C2CCCCC2)C1)N1CCCN(C2CCC2)CC1 [Example 24, 1-cyclobutyl-4-{[1-(cyclohexylsulfonyl)azetidin-3-yl]carbonyl}-1,4-diazepane]
< 50 | O=C(C1CN(C(=O)N2CCCCC2)C1)N1CCCN(C2CCC2)CC1 [Example 2, 1-cyclobutyl-4-{[1-(piperidin-1-ylcarbonyl)azetidin-3-yl]carbonyl}-1,4-diazepane]
< 50 | Cc1ccc(C(=O)N2CC(C(=O)N3CCCN(C4CCCCC4)CC3)C2)cn1 [Example 82, 1-cyclohexyl-4-({1-[(6-methylpyridin-3-yl)carbonyl]azetidin-3-yl}carbonyl)-1,4-diazepane]
< 50 | Cc1cc(C(=O)N2CC(C(=O)N3CCCN(C4CCC4)CC3)C2)ccn1 [Example 75, 1-cyclobutyl-4-({1-[(2-methylpyridin-4-yl)carbonyl]azetidin-3-yl}carbonyl)-1,4-diazepane]
< 50 | O=C(c1ccc(-n2ccnc2)nc1)N1CC(C(=O)N2CCCN(C3CCC3)CC2)C1 [Example 12, 1-cyclobutyl-4-[(1-{[6-(1H-imidazol-1-yl)pyridin-3-yl]carbonyl}azetidin-3-yl)carbonyl]-1,4-diazepane]
100 to 5000 | Cc1ccc(C(=O)N2CC(C(=O)N3CCCN(C(C)C)CC3)C2)cn1 [Example 79, 1-(1-methylethyl)-4-({1-[(6-methylpyridin-3-yl)carbonyl]azetidin-3-yl}carbonyl)-1,4-diazepane]
< 50 | O=C(c1ccc(-n2cccn2)cc1)N1CC(C(=O)N2CCCN(C3CCC3)CC2)C1 [Example 40, 1-cyclobutyl-4-[(1-{[4-(1H-pyrazol-1-yl)phenyl]carbonyl}azetidin-3-yl)carbonyl]-1,4-diazepane]
< 50 | O=C(NCC1CCCCC1)N1CC(C(=O)N2CCCN(C3CCC3)CC2)C1 [Example 56, 3-[(4-cyclobutyl-1,4-diazepan-1-yl)carbonyl]-N-(cyclohexylmethyl)azetidine-1-carboxamide]
< 50 | O=C(NCc1ccc(F)cc1)N1CC(C(=O)N2CCCN(C3CCC3)CC2)C1 [Example 58, 3-[(4-cyclobutyl-1,4-diazepan-1-yl)carbonyl]-N-(4-fluorobenzyl)azetidine-1-carboxamide]
< 50 | CC(C)c1ccc(C(=O)N2CC(C(=O)N3CCCN(C4CCC4)CC3)C2)cc1 [Example 38, 1-cyclobutyl-4-[(1-{[4-(1-methylethyl)phenyl]carbonyl}azetidin-3-yl)carbonyl]-1,4-diazepane]
< 50 | CN(CC1CCCCC1)C(=O)N1CC(C(=O)N2CCCN(C3CCC3)CC2)C1 [Example 60, 3-[(4-cyclobutyl-1,4-diazepan-1-yl)carbonyl]-N-(cyclohexylmethyl)-N-methylazetidine-1-carboxamide]
< 50 | O=C(NCC1CCOCC1)N1CC(C(=O)N2CCCN(C3CCC3)CC2)C1 [Example 57, 3-[(4-cyclobutyl-1,4-diazepan-1-yl)carbonyl]-N-(tetrahydro-2H-pyran-4-ylmethyl)azetidine-1-carboxamide]
< 50 | O=C(c1ccc(-n2cncn2)nc1)N1CC(C(=O)N2CCCN(C3CCC3)CC2)C1 [Example 13, 1-cyclobutyl-4-[(1-{[6-(1H-1,2,4-triazol-1-yl)pyridin-3-yl]carbonyl}azetidin-3-yl)carbonyl]-1,4-diazepane]
< 50 | Cc1nc(-c2ccc(C(=O)N3CC(C(=O)N4CCCN(C5CCC5)CC4)C3)cc2)cs1 [Example 36, 1-cyclobutyl-4-[(1-{[4-(2-methyl-1,3-thiazol-4-yl)phenyl]carbonyl}azetidin-3-yl)carbonyl]-1,4-diazepane]
< 50 | Cc1ccc(C(=O)N2CC(C(=O)N3CCCN(C4CCCC4)CC3)C2)cn1 [Example 81, 1-cyclopentyl-4-({1-[(6-methylpyridin-3-yl)carbonyl]azetidin-3-yl}carbonyl)-1,4-diazepane]
< 50 | O=C(C1CN(C(=O)N2CCOCC2)C1)N1CCCN(C2CCC2)CC1 [Example 3, 1-cyclobutyl-4-{[1-(morpholin-4-ylcarbonyl)azetidin-3-yl]carbonyl}-1,4-diazepane]
100 to 5000 | Cc1ccc(C(=O)N2CC(C(=O)N3CCCN(CC(C)C)CC3)C2)cn1 [Example 84, 1-(2-methylpropyl)-4-({1-[(6-methylpyridin-3-yl)carbonyl]azetidin-3-yl}carbonyl)-1,4-diazepane]
< 50 | N#Cc1ccc(CC(=O)N2CC(C(=O)N3CCCN(C4CCC4)CC3)C2)cc1 [Example 34, 4-(2-{3-[(4-cyclobutyl-1,4-diazepan-1-yl)carbonyl]azetidin-1-yl}-2-oxoethyl)benzonitrile]
< 50 | O=C(CC1CC1)N1CC(C(=O)N2CCCN(C3CCC3)CC2)C1 [Example 32, 1-cyclobutyl-4-{[1-(cyclopropylacetyl)azetidin-3-yl]carbonyl}-1,4-diazepane]

IC50 [nM] | SMILES
< 50 | N#Cc1ccc(CNC(=O)N2CC(C(=O)N3CCCN(C4CCC4)CC3)C2)cc1 [Example 66, N-(4-cyanobenzyl)-3-[(4-cyclobutyl-1,4-diazepan-1-yl)carbonyl]azetidine-1-carboxamide]
< 50 | Cc1cnc(C(=O)N2CC(C(=O)N3CCCN(C4CCC4)CC3)C2)cn1 [Example 9, 1-cyclobutyl-4-({1-[(5-methylpyrazin-2-yl)carbonyl]azetidin-3-yl}carbonyl)-1,4-diazepane]
100 to 5000 | Cc1ccc(C(=O)N2CC(C(=O)N3CCCN(CC4CC4)CC3)C2)cn1 [Example 83, 1-(cyclopropylmethyl)-4-({1-[(6-methylpyridin-3-yl)carbonyl]azetidin-3-yl}carbonyl)-1,4-diazepane]
50 to 100 | COc1ccc(S(=O)(=O)N2CC(C(=O)N3CCCN(C4CCC4)CC3)C2)cc1 [Example 23, 1-cyclobutyl-4-({1-[(4-methoxyphenyl)sulfonyl]azetidin-3-yl}carbonyl)-1,4-diazepane]
< 50 | O=C(CN1CCOCC1)N1CC(C(=O)N2CCCN(C3CCC3)CC2)C1 [Example 17, 1-cyclobutyl-4-{[1-(morpholin-4-ylacetyl)azetidin-3-yl]carbonyl}-1,4-diazepane]
< 50 | Cc1noc(-c2ccc(C(=O)N3CC(C(=O)N4CCCN(C5CCC5)CC4)C3)cc2)n1 [Example 41, 1-cyclobutyl-4-[(1-{[4-(3-methyl-1,2,4-oxadiazol-5-yl)phenyl]carbonyl}azetidin-3-yl)carbonyl]-1,4-diazepane]
< 50 | CN(Cc1ccc(C#N)cc1)C(=O)N1CC(C(=O)N2CCCN(C3CCC3)CC2)C1 [Example 64, N-(4-cyanobenzyl)-3-[(4-cyclobutyl-1,4-diazepan-1-yl)carbonyl]-N-methylazetidine-1-carboxamide]
< 50 | O=C(Cc1ccc(Cl)cc1)N1CC(C(=O)N2CCCN(C3CCC3)CC2)C1 [Example 54, 1-({1-[(4-chlorophenyl)acetyl]azetidin-3-yl}carbonyl)-4-cyclobutyl-1,4-diazepane]
< 50 | N#Cc1ccc(NC(=O)N2CC(C(=O)N3CCCN(C4CCC4)CC3)C2)cc1 [Example 59, N-(4-cyanophenyl)-3-[(4-cyclobutyl-1,4-diazepan-1-yl)carbonyl]azetidine-1-carboxamide]
< 50 | Cc1ccc(C(=O)N2CC(C(=O)N3CCCN(C4CCC4)CC3)C2)cn1 [Example 10, 1-cyclobutyl-4-({1-[(6-methylpyridin-3-yl)carbonyl]azetidin-3-yl}carbonyl)-1,4-diazepane]
< 50 | Cc1ncc(C(=O)N2CC(C(=O)N3CCCN(C4CCC4)CC3)C2)cn1 [Example 8, 1-cyclobutyl-4-({1-[(2-methylpyrimidin-5-yl)carbonyl]azetidin-3-yl}carbonyl)-1,4-diazepane]
< 50 | O=C(C1CN(C(=O)C2CCOCC2)C1)N1CCCN(C2CCC2)CC1 [Example 5, 1-cyclobutyl-4-{[1-(tetrahydro-2H-pyran-4-ylcarbonyl)azetidin-3-yl]carbonyl}-1,4-diazepane]
< 50 | CCC(=O)N1CC(C(=O)N2CCCN(C3CCC3)CC2)C1 [Example 71, 1-cyclobutyl-4-[(1-propanoylazetidin-3-yl)carbonyl]-1,4-diazepane]
< 50 | Cc1nc(-c2cccc(C(=O)N3CC(C(=O)N4CCCN(C5CCC5)CC4)C3)c2)cs1 [Example 46, 1-cyclobutyl-4-[(1-{[3-(2-methyl-1,3-thiazol-4-yl)phenyl]carbonyl}azetidin-3-yl)carbonyl]-1,4-diazepane]
< 50 | O=C(Cn1cccn1)N1CC(C(=O)N2CCCN(C3CCC3)CC2)C1 [Example 15, 1-cyclobutyl-4-{[1-(1H-pyrazol-1-ylacetyl)azetidin-3-yl]carbonyl}-1,4-diazepane]
< 50 | O=C(C1CN(C(=O)N2CCc3ccccc3C2)C1)N1CCCN(C2CCC2)CC1 [Example 65, 2-({3-[(4-cyclobutyl-1,4-diazepan-1-yl)carbonyl]azetidin-1-yl}carbonyl)-1,2,3,4-tetrahydroisoquinoline]
< 50 | O=C(c1ccc(-n2cncn2)cc1)N1CC(C(=O)N2CCCN(C3CCC3)CC2)C1 [Example 73, 1-cyclobutyl-4-[(1-{[4-(1H-1,2,4-triazol-1-yl)phenyl]carbonyl}azetidin-3-yl)carbonyl]-1,4-diazepane]
< 50 | CCN1CCCN(C(=O)C2CN(C(=O)c3ccc(C)nc3)C2)CC1 [Example 80, 1-ethyl-4-({1-[(6-methylpyridin-3-yl)carbonyl]azetidin-3-yl}carbonyl)-1,4-diazepane]
100 to 5000 | Cc1ccc(C(=O)N2CC(C(=O)N3CCN(C4CCC4)CC3)C2)cn1 [Example 87, 1-cyclobutyl-4-({1-[(6-methylpyridin-3-yl)carbonyl]azetidin-3-yl}carbonyl)piperazine]

SMILES | IC50 [nM]
N#Cc1ccc(OC(=O)N2CC(C(=O)N3CCCN(C4CCC4)CC3)C2)cc1 [Example 69, 4-cyanophenyl 3-[(4-cyclobutyl-1,4-diazepan-1-yl)carbonyl]azetidine-1-carboxylate] | < 50
